Laboratory results published in patent US20260325605A1, “INHIBITORS” (Zealand Pharma A/S, priority 2022, published 2026).
Read-outs that look alike come from different tables or passages of the source.

How the values were obtained:
[1] = tested on: T-cell activation in human whole blood; assay: Example 5: IFN-g, IL-2 and IL-17A release in thapsigargin stimulated human whole blood; assay type: cell-based; conditions: 24 Hr, at least 2 replicate experiments
From the text: Human whole blood was used to assess the potency of Kv1.3 inhibitor peptides on T-cell activation as determined by release of the cytokines IFN-g, IL-2 and IL-17A after stimulation with thapsigargin. Addition of thapsigargin activates a signalling cascade resulting in T cell proliferation and cytokine production, in which the Kv1.3 ion channel plays a key role. Activity of Kv1.3 inhibitors in human primary T cells can thus be measured in this experimental system.
Human whole blood was obtained from healthy blood donors and was collected after informed consent using Sodium Heparin blood sampling tubes (Becton, Dickinson and Company (BD), Cat #367876). Test peptides were diluted to 4× final testing concentrations in assay buffer (Dulbecco's Modified Eagle's medium (DMEM) with high glucose and GlutaMAX (3.97 mM L-alanine-L-glutamine) (Gibco Cat #61965026) supplemented with 25 mM HEPES buffer, 1 mM Sodium Pyruvate, 100 units/ml Penicillin, 100 μg/ml Streptomycin and 0.05% Casein from bovine milk (Sigma-Aldrich Cat #C4765)) and 25 μl was added to wells of a 96 well tissue culture plate. Then 50 μl human whole blood was added and incubated for minimum 5 minutes at room temperature to allow compound binding. Then 25 μl of 40 μM thapsigargin diluted in assay buffer was added to all wells of the assay plates to activate the cells, followed by incubation for 24 Hr at 37° C./5% CO2 in a humidified box. The assay plates were centrifuged for 10 min at 300 g at 4° C. and the supernatants were transferred to new plates. The concentrations of IFN-g, IL-2 and IL-17A released to the supernatants were measured using a tri-plex human cytokine detection kit (MSD Human U-Plex IFN-g, IL-2 and IL-17A kit; Meso Scale Discovery Cat #K15067L-2) and all three cytokines were measured using a MSD MESO QuickPlex SQ 120 instrument as described by the manufacturer (Meso Scale Discovery, Rockville, Maryland, USA).
To determine the potency of inhibition for the compounds, the cytokine concentration data were fitted using a three parameter logistic dose response model based on the formula Y=Bottom+(Top−Bottom)/(1+IC50/X), where Y is measured cytokine concentrations, X is compound concentrations and Top, bottom and IC50 are parameters fitted using the software Graphpad Prism version 5.04. The IC50 value calculated from the concentration response curve represents the compound concentration that gives an inhibition response halfway between the basal (Bottom) response and the maximal (Top) response.
All values are derived from at least 2 replicate experiments. All of the tested Kv1.3 blockers were able to inhibit cytokine production from human T cells present in human whole blood that was stimulated with thapsigargin.

Kv1.1 = target: T1, Kv1.1 (Homo sapiens, UniProt Q09470); assay: Patch clamp assay (QPatch), Kv1.1; assay type: cell-based
T1 construct: expressed in transfected cells
T1 sequence (Q09470 whole entry): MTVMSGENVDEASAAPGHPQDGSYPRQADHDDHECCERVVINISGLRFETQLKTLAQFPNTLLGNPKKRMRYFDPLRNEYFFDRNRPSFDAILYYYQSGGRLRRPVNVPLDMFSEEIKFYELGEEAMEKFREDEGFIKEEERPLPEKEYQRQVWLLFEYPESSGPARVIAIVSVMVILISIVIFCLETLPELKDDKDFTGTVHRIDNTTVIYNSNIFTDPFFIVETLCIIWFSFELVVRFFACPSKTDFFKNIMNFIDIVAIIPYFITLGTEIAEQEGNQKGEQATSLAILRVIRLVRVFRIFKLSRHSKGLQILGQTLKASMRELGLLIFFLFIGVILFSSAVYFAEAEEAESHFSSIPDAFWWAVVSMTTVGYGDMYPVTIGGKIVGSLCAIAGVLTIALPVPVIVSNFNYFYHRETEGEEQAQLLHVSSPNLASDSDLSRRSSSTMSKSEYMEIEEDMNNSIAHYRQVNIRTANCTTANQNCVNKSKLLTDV

[2] = tested on: collagen-induced arthritis in rats; assay: Example 9: Rat collagen-induced arthritis (CIA) model, clinical score; assay type: in vivo, rat (Lewis); set-up: key: qualitative severity score summed over four paws, maximum 16
Description: Vehicle: 10 mM phosphate pH 6+0.8% NaCl+0.05% polysorbate 20
Peptide: Peptide 100 is formulated in vehicle at 50 nmol/mL. Dosing volume was individually adjusted according to the body weight of each animal to reach the target dose of peptide 100 of 100 nmol/kg.
The animal care facility employed is accredited by AAALAC. Female Lewis rats, weighing 180±20 g at delivery were used for this study. Following arrival in the animal facility, all animals were subjected to a general health evaluation. An acclimation period of 1 day was allowed before the beginning of the study.
Animals were grouped into 9 each based on their body weight. All animals were challenged with porcine type-II collagen with incomplete Freund's adjuvant on day 1 (0.2 mg/0.2 mL/rat, subcutaneously at the base of the tail) and boosted on day 7 (0.1 mg/0.1 mL/rat, s.c.). In the study dexamethasone given daily PO at 0.3 mg/kg was used as a positive control.
From day 12 to day 30, peptide 100 was administered as a single bolus either daily (QD), every third day (Q3D) or every fifth day (Q5D) subcutaneously into the flank. […] The peptide and vehicle were dosed at a volume of 2 mL/kg. Dosing volume was individually adjusted according to the body weight of each animal to reach the target dose of formulation 1 of 100 nmol/kg.
Disease was assessed by using a qualitative severity score system (see below, maximum score of 16) on days 1, 7, 10, 12 (before dosing), 13, 14, 15, 16, 17, 18, 19, 20, 21, 22, 24, 26 and 28 before peptide treatment and one hour after treatment on day 30.
The disease severity score is based on the following:
The ability of Kv1.3 inhibitor treatment to reduce chronic inflammation in arthritis was investigated by comparing the response in rats (n=9 animals/group) treated with vehicle to that of rats treated with peptide 100 daily, every third day or every fifth day. The severity of arthritis was determined by summation of the disease score on all four paws from day 12 to day 30 for each animal.

Kv1.6 = target: T2, Kv1.6 (Homo sapiens, UniProt P17658); assay: Patch clamp assay (QPatch), Kv1.6; assay type: cell-based
T2 construct: expressed in transfected cells
T2 sequence (P17658 whole entry): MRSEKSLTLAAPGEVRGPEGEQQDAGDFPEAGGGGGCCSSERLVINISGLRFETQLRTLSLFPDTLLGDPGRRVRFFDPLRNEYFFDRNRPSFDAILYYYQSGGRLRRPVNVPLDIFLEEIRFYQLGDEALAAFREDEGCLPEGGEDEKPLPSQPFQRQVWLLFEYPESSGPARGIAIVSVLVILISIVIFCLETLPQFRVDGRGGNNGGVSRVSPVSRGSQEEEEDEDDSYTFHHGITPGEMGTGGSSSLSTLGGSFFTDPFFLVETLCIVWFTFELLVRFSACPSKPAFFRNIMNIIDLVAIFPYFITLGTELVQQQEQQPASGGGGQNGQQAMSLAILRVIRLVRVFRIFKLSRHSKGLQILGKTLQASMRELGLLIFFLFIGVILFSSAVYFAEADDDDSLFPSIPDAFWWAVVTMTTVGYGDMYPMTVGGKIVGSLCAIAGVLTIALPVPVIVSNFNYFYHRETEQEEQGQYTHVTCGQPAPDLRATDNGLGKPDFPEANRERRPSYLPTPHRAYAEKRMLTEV
Description: Selectivity of Kv1.3 inhibitor peptides for Kv1.3 over other potassium ion channels (Kv1.1, Kv1.2 and Kv1.6) was determined using patch clamp assay.
Chinese Hamster Ovary (CHO) cell lines stably expressing exogenous human α-subunits of each potassium ion channel were grown and passaged under standard culture conditions.
The automated, chip-based planar patch clamp device QPatch® was used to quantitate the ionic currents. All recordings were made in the conventional whole-cell configuration after establishment of gigaohm seals. […] During experiments 0.1% (v/v) BSA was included as a vehicle in all external recording solutions. Currents were elicited from a holding potential of −80 mV using a voltage protocol, which shifted the voltage to 30 mV for 500 ms every 15 s.
Concentration-response relationships were established by cumulatively applying seven escalating concentrations of test sample to an individual cell with a recording period of 2 min per compound application.
The efficacy was determined as the mean charge for the last three sweeps at the end of each concentration application period from the cursor positions. The percent inhibition for each test dose application period was calculated as the reduction in mean cursor value (charge) relative to the cursor value measured at the end of the vehicle period and used to calculate the IC50 from the concentration response curve.

For “H-P[Nle]E[Nle]RC(1)SASVEC(2)KQKC(3)LAAIGSIFGKC(1)[Nle]NKKC(2)KC(3)YPR-OH [Peptide 100]”, the IC50 ([1]; read-out: Average IC50, IFN-g) was 0.11 nM, the IC50 ([1]; read-out: Average IC50, IL-2) was 0.095 nM and the IC50 ([1]; read-out: Average IC50, IL-17A) was 0.15 nM. The IC50 (Kv1.1; QPatch, CHO cells stably expressing human Kv1.1, read-out: Potency IC50, Kv1.1) was greater than 3000 nM, the “Selectivity Kv1.1/Kv1.3” value (Kv1.1; ratio of IC50 Kv1.1/Kv1.3) was greater than 9100 and the Mean clinical score ([2]; 100 nmol/kg s.c. daily, every third day or every fifth day, day 12 to day 30, in words) was “reduction of the mean clinical score with all dosing regimens”. For the same substance, the Mean clinical score ([2]; Q3D SC 100 nmol/kg, day 12) was 0.8, the Mean clinical score ([2]; Q3D SC 100 nmol/kg, day 13) was 2.0 and the Mean clinical score ([2]; Q3D SC 100 nmol/kg, day 14) was 4.1. The Mean clinical score ([2]; Q3D SC 100 nmol/kg, day 15) was 4.4, the Mean clinical score ([2]; Q3D SC 100 nmol/kg, day 16) was 5.0 and the Mean clinical score ([2]; Q3D SC 100 nmol/kg, day 17) was 5.6. It also gave a Mean clinical score ([2]; Q3D SC 100 nmol/kg, day 18) of 6.4, a Mean clinical score ([2]; Q3D SC 100 nmol/kg, day 19) of 6.6 and a Mean clinical score ([2]; Q3D SC 100 nmol/kg, day 20) of 7.2. The Mean clinical score ([2]; Q3D SC 100 nmol/kg, day 21) was 7.3, the Mean clinical score ([2]; Q3D SC 100 nmol/kg, day 22) was 8.0 and the Mean clinical score ([2]; Q3D SC 100 nmol/kg, day 24) was 8.2. The Mean clinical score ([2]; Q3D SC 100 nmol/kg, day 26) was 8.4, the Mean clinical score ([2]; Q3D SC 100 nmol/kg, day 28) was 9.0 and the Mean clinical score ([2]; Q3D SC 100 nmol/kg, day 30) was 10.0. The Mean clinical score ([2]; Q5D SC 100 nmol/kg, day 12) was 2.4, the Mean clinical score ([2]; Q5D SC 100 nmol/kg, day 13) was 3.3 and the Mean clinical score ([2]; Q5D SC 100 nmol/kg, day 14) was 4.6. For the same substance, the Mean clinical score ([2]; Q5D SC 100 nmol/kg, day 15) was 4.9, the Mean clinical score ([2]; Q5D SC 100 nmol/kg, day 16) was 5.4 and the Mean clinical score ([2]; Q5D SC 100 nmol/kg, day 17) was 5.8. It also gave a Mean clinical score ([2]; Q5D SC 100 nmol/kg, day 18) of 6.2, a Mean clinical score ([2]; Q5D SC 100 nmol/kg, day 19) of 6.4 and a Mean clinical score ([2]; Q5D SC 100 nmol/kg, day 20) of 6.9. For the same substance, the Mean clinical score ([2]; Q5D SC 100 nmol/kg, day 21) was 7.1, the Mean clinical score ([2]; Q5D SC 100 nmol/kg, day 22) was 7.6 and the Mean clinical score ([2]; Q5D SC 100 nmol/kg, day 24) was 8.2. It also gave a Mean clinical score ([2]; Q5D SC 100 nmol/kg, day 26) of 8.5, a Mean clinical score ([2]; Q5D SC 100 nmol/kg, day 28) of 9.0 and a Mean clinical score ([2]; Q5D SC 100 nmol/kg, day 30) of 9.4. For the same substance, the Mean clinical score ([2]; QD SC 100 nmol/kg, day 12) was 0.8, the Mean clinical score ([2]; QD SC 100 nmol/kg, day 13) was 2.1 and the Mean clinical score ([2]; QD SC 100 nmol/kg, day 14) was 4.3. The Mean clinical score ([2]; QD SC 100 nmol/kg, day 15) was 4.7, the Mean clinical score ([2]; QD SC 100 nmol/kg, day 16) was 5.8 and the Mean clinical score ([2]; QD SC 100 nmol/kg, day 17) was 6.0. The Mean clinical score ([2]; QD SC 100 nmol/kg, day 18) was 6.6, the Mean clinical score ([2]; QD SC 100 nmol/kg, day 19) was 6.7 and the Mean clinical score ([2]; QD SC 100 nmol/kg, day 20) was 7.0. For the same substance, the Mean clinical score ([2]; QD SC 100 nmol/kg, day 21) was 7.1, the Mean clinical score ([2]; QD SC 100 nmol/kg, day 22) was 7.1 and the Mean clinical score ([2]; QD SC 100 nmol/kg, day 24) was 6.9. It also gave a Mean clinical score ([2]; QD SC 100 nmol/kg, day 26) of 7.0, a Mean clinical score ([2]; QD SC 100 nmol/kg, day 28) of 7.8 and a Mean clinical score ([2]; QD SC 100 nmol/kg, day 30) of 8.4. The IC50 (Kv1.6; QPatch, CHO cells stably expressing human Kv1.6, read-out: Potency IC50, Kv1.6) was greater than 3000 nM and the “Selectivity Kv1.6/Kv1.3” value (Kv1.6; ratio of IC50 Kv1.6/Kv1.3) was greater than 9100.
